Laboratory results taken from patent US20240270701A1, “BETA ADRENERGIC AGONIST AND METHODS OF USING THE SAME” (Curasen Therapeutics, Inc., priority 2021, published 2024).
Where two headings read alike, the source gives them in different places.

Key:
B1-AR = target: T1, B1-AR (Homo sapiens, UniProt P08588); assay: cAMP Gs dynamic HTRF assay, cells expressing beta-adrenergic receptor (CHO-K1), B1-AR; type: cell-based; settings: for EC50: cAMP HTRF, read-out: pEC50 [B1-AR] (converted); for Emax: relative to full agonist isoproterenol, read-out: Emax (% iso) (%) [B1-AR]
T1 construct: expressed in transfected cells; host or cells: CHO-K1
Experimental: (§1) cAMP homogeneous time-resolved fluorescence (HTRF): experimental methods. Compound efficacy is determined using the cAMP Gs dynamic HTRF assay (Cisbio, catalog #62AM4PEC) largely following the manufacturer's instructions, also detailed below.
(§2) Standard serial dilution curves are 10-point, 5-fold dilutions starting from a highest concentration of 10 μM. Controls present on every assay plate are 0.1% DMSO (vehicle control), 1 μM isoproterenol (full beta-adrenergic agonist control) and […] xamoterol (partial beta-adrenergic agonist control). […] Assay plates are centrifuged at 500×g for 10 seconds. Compounds and IBMX are prepared at 2× final dose to compensate for addition of cells.
(§3) Cell preparation: 1× stimulation buffer, washing PBS (Dulbecco's phosphate-buffered saline, − Mg − Ca; Caisson Labs, catalog #PBL01), assay PBS (Dulbecco's phosphate-buffered saline, + Mg, + Ca; Caisson Labs, catalog #PBL02) and Versene (0.02% EDTA disodium salt solution in PBS without calcium or magnesium; Caisson Labs, catalog #EDL01) are pre-warmed to 37° C. Cells expressing beta-adrenergic receptor were washed in washing PBS to remove growth medium and then released from the surface by incubating with Versene for 5-10 minutes at 37° C. Cells are harvested using assay PBS, counted manually by hemocytometer or by an automated cell counter, pelleted by centrifugation (200×g, 5 minutes) and resuspended in 37° C. 1× stimulation buffer to a final density of 1.5×10^6 cells/mL. 5 μL of the suspended cell solution (7500 cell total) are added to all wells of the 384 well assay plate, the assay plate was covered with an Axygen® plate seal (Corning PCR-SP) and incubated in a humidified 37° C. environment supplemented with 5% CO2 for 30 minutes.
(§4) HTRF reagent addition, reading and data analysis: After 30 minutes of cell stimulation with test compound, the assay plates are centrifuged at 500×g for 10 seconds, and incubation was stopped with the addition of 5 μL cAMP-D2 acceptor, diluted 1:21 in detection and lysis buffer 2 (Cisbio 62CL2FDF) was added to all cells. Subsequently, 5 μL Anti-cAMP-Eu Donor, diluted 1:21 in detection and lysis buffer 2, was added to cells. Plates were sealed and reactions gently ‘vortexed’ at 900 rpm on a Heidolph Titramax 1000 for at least 30 minutes at room temperature. Plates are centrifuged again at 500×g for 10 seconds, and HTRF was measured using a Tecan Spark plate reader at 50 flashes per well. […] Potency estimates (EC50 and pEC50) are derived from the four-parameter nonlinear regression of the concentration-effect curve and an estimate of relative efficacy is determined by comparing the magnitude of the test compound HTRF signal window (min−max dose) with the signal window of the full agonist control, isoproterenol.

B2-AR = target: T2, B2-AR (Homo sapiens, UniProt P07550); assay: cAMP Gs dynamic HTRF assay, cells expressing beta-adrenergic receptor (CHO-K1), B2-AR; type: cell-based; settings: for Emax: relative to full agonist isoproterenol, read-out: Emax (% iso) (%) [B2-AR]; for EC50: cAMP HTRF, read-out: pEC50 [B2-AR] (converted)
T2 construct: expressed in transfected cells; host or cells: CHO-K1
Experimental: as §1, §2, §3, §4

T1 sequence (P08588 whole entry, species assumed): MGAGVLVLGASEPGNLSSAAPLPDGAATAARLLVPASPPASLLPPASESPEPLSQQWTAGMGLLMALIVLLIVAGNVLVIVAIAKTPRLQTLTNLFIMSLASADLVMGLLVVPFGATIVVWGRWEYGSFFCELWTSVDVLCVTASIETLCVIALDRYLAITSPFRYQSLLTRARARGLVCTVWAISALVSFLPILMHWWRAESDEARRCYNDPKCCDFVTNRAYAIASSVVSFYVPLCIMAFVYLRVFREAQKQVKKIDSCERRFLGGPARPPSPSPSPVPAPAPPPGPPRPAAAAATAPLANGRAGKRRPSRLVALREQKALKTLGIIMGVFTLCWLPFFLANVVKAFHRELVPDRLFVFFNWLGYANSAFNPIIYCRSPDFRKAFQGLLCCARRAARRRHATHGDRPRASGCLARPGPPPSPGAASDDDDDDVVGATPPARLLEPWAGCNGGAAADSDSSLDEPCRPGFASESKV
T2 sequence (P07550 whole entry, species assumed): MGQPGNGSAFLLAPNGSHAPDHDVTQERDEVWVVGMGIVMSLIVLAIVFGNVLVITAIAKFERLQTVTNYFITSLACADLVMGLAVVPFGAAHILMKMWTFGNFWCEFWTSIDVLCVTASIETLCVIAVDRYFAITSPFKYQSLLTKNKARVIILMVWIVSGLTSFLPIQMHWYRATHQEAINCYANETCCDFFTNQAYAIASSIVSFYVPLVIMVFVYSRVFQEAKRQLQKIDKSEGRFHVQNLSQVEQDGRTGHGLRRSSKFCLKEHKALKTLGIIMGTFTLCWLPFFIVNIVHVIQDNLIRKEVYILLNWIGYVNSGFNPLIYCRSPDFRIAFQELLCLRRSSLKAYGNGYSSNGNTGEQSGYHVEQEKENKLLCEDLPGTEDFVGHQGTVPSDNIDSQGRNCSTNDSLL

Row | SMILES | EC50 (B1-AR) [nM] | Emax (B1-AR) [%] | Emax (B2-AR; CHO-K1, CHO-K1 cells) [%] | EC50 (B2-AR; CHO-K1 cells) [nM] | Emax (B2-AR; CHO-K1 cells) [%]
1 | CC(C)[C@H](C)NC[C@H](O)c1ccc(F)c2[nH]ncc12 [I-36] | < 10 | 70 to 90 | > 90 | < 10 | 
2 | CCC(CC)NC[C@H](O)c1ccc(F)c2[nH]ncc12 [I-37] | 10 to 100 | 70 to 90 | 70 to 90 | < 10 | 
3 | CC(C)[C@@H](C)NC[C@H](O)c1cccc2[nH]nc(F)c12 [I-38] | < 10 | 70 to 90 | > 90 | < 10 | 
4 | CC(C)[C@H](C)NC[C@H](O)c1cccc2[nH]ncc12 [I-40] | 10 to 100 | 70 to 90 |  | < 10 | > 90
5 | CC[C@@H](C)NC[C@H](O)c1cc(F)cc2[nH]ncc12 [I-41] | < 10 | > 90 |  | < 10 | > 90
6 | CCC(CC)NC[C@H](O)c1cccc2[nH]nc(F)c12 [I-42] | 10 to 100 | > 90 | 70 to 90 | < 10 | 
7 | CCC(CC)NC[C@H](O)c1cccc2[nH]ncc12 [I-43] | 10 to 100 | > 90 | > 90 | < 10 | 
8 | CCC(CC)NC[C@H](O)c1cc(F)cc2[nH]ncc12 [I-44] | < 10 | > 90 | 70 to 90 | < 10 | 
9 | CCC(C)(C)NC[C@H](O)c1cccc2[nH]nc(Cl)c12 [I-45] | < 10 | 70 to 90 | 70 to 90 | < 10 | 
10 | CCC(C)(C)NC[C@H](O)c1cccc2[nH]cc(F)c12 [I-46] | < 10 | > 90 | > 90 | < 10 | 
11 | CCC(C)(C)NC[C@H](O)c1cccc2[nH]ncc12 [I-47] | < 10 | 70 to 90 | > 90 | < 10 | 
12 | CCC(C)(C)NC[C@H](O)c1cccc2[nH]nc(F)c12 [I-48] | < 10 | > 90 | > 90 | < 10 | 
13 | CCC(C)(C)NC[C@H](O)c1ccc(Cl)c2[nH]ncc12 [I-49] | < 10 | 70 to 90 | 70 to 90 | < 10 | 
14 | CCC(C)(C)NC[C@H](O)c1ccc(F)c2[nH]ncc12 [I-50] | < 10 | 70 to 90 |  | < 10 | 70 to 90
15 | CCC(C)(C)NC[C@H](O)c1cc(F)cc2[nH]ncc12 [I-51] | < 10 | 70 to 90 |  | < 10 | > 90
16 | CCC(C)(C)NC[C@H](O)c1cc(C#N)cc2[nH]ncc12 [I-52] | 100 to 1000 | 70 to 90 | > 90 | 10 to 100 | 
17 | CCC(C)(C)NC[C@H](O)c1cncc2[nH]ncc12 [I-53] | 100 to 1000 | 70 to 90 |  | 10 to 100 | 70 to 90
18 | CCC(C)(C)NC[C@H](O)c1cccc2[nH]nc(C)c12 [I-54] | 100 to 1000 | 70 to 90 |  | 10 to 100 | 70 to 90

Row | SMILES | EC50 (B1-AR) [nM] | Emax (B1-AR) [%] | Emax (B2-AR; CHO-K1, CHO-K1 cells) [%] | EC50 (B2-AR; CHO-K1 cells) [nM] | Emax (B2-AR; CHO-K1 cells) [%]
19 | Cn1nc(F)c2c([C@@H](O)CNC(C)(C)C)cccc21 [I-55] | < 10 | 70 to 90 |  | < 10 | 50 to 70
20 | Cn1ncc2c([C@@H](O)CNC(C)(C)C)ccc(F)c21 [I-56] | 10 to 100 | 50 to 70 |  | < 10 | 50 to 70
21 | Cn1ncc2c([C@@H](O)CNC(C)(C)C)cc(F)cc21 [I-57] | 10 to 100 | 70 to 90 | 50 to 70 | < 10 | 
22 | CC(C)(C)NC[C@H](O)c1cc(F)c(Cl)c2[nH]ncc12 [I-58] | < 10 | 70 to 90 | 70 to 90 | < 10 | 
23 | COc1cc([C@@H](O)CNC(C)(C)C)c2cn[nH]c2c1F [I-59] | 100 to 1000 | < 50 | < 50 | 10 to 100 | 
24 | Cc1ccc([C@@H](O)CNC(C)(C)C)c2c(F)n[nH]c12 [I-60] | < 10 | 70 to 90 | 70 to 90 | < 10 | 
25 | Cc1n[nH]c2cc(F)cc([C@@H](O)CNC(C)(C)C)c12 [I-61] | 10 to 100 | 70 to 90 |  | < 10 | 70 to 90
26 | Cc1c(F)cc([C@@H](O)CNC(C)(C)C)c2cn[nH]c12 [I-62] | < 10 | 70 to 90 |  | < 10 | 70 to 90
27 | CC(C)(C)CNC[C@H](O)c1cccc2c1C(F)(F)C(=O)N2 [I-63] | > 1000 | < 50 |  | 100 to 1000 | > 90
28 | Cn1ccc(CNC[C@H](O)c2cccc3[nH]ncc23)n1 [I-64] | 100 to 1000 | 70 to 90 |  | 100 to 1000 | > 90
29 | Cn1ccc(CNC[C@H](O)c2ccc(F)c3[nH]ncc23)n1 [I-65] | 100 to 1000 | 50 to 70 |  | 100 to 1000 | 70 to 90
30 | CC(C)(C)NC[C@@H](O)c1cncc2[nH]ncc12 [I-66] | > 1000 | 70 to 90 | > 90 | 100 to 1000 | 
31 | Cc1cc([C@@H](O)CNC(C)(C)C)c2cn[nH]c2n1 [I-67] | 10 to 100 | > 90 | > 90 | < 10 | 
32 | CC(C)(C)CNC[C@H](O)c1ccc(Cl)c2[nH]ncc12 [I-68] | 10 to 100 | 70 to 90 |  | < 10 | 70 to 90
33 | CC(C)(C)CNC[C@H](O)c1cc(C#N)cc2[nH]ncc12 [I-69] | > 1000 | 50 to 70 | 70 to 90 | 100 to 1000 | 
34 | CNc1ncc([C@@H](O)CNC(C)(C)C)cn1 [I-70] | 100 to 1000 | 70 to 90 |  | 10 to 100 | 50 to 70
35 | Cc1cc([C@@H](O)CNC(C)(C)C)cc2cccnc12 [I-71] | 100 to 1000 | 50 to 70 |  | 10 to 100 | < 50
36 | Cc1ccnc2ccc([C@@H](O)CNC(C)(C)C)cc12 [I-72] | 100 to 1000 | 50 to 70 | < 50 | 10 to 100 | 
